In patent publication US9102710B2, “Cyclic peptides binding CXCR4 receptor and relative medical and diagnostic uses” (IRCCS-ISTITUTO NAZIONALE PER LO STUDIO E LA CURA DEI TUMORI …, priority 2010, dated 2015):

Assays:
[1] = test system: phosphorylation of ERK 1,2; assay: p-ERK induction by Immunoblotting in PES43 cells; format: cell-based, human; conditions: AMD3100 1 uM, SDF-1α 100 ng/ml
Protocol: CXCL12 activates the phosphorylation of ERK and this phosphorylation is inhibited by both AMD3100 (1 uM), and by the peptides css:[C-WHR-C] (10 uM), css:[C-FFR-C] (10 uM), css:[C-FFR-C]-Nam (10 uM), css:[C-WYR-C]-AR (10 uM), RA-css:[C-RFF-C] (10 uM), RA-css:[C-RHW-C] (10 uM), abb:[β-Ala-WHR-β-Ala] (10 uM).
The activation of CXCR4 induces the transduction path of MAPK through the phosphorylation of ERK 1,2. For this reason, the modulation of the induction of P-ERK was evaluated in relation to treatment with SDF-1α (100 ng/ml), peptides (10 uM) and AMD3100 (1 uM).
The cells were deprived of serum for 24 hours and then stimulated with SDF-1α.
The human melanoma cells, PES43, grown on 100 mm plates, were treated with SDF-1α, for 2-5-7-10 minutes. The cells were then mechanically detached, lysed in a specific buffer to which protease inhibitors and phosphatase inhibitors were added (120 mM NaCl, 40 mM Hepes, 5 mM MgCl2, 1 mM EGTA, 0.5 mM EDTA, 0.6% Triton, 10% glycerol, […], 1 mM Na3VO4, 1 mM NaF). The cell lysates thus obtained (50 μg of total proteins) were first denatured with Laemmli 4× and then separated with SDS-PAGE on gel at 10% in the presence of a running buffer (Tris Base, Glycine, SDS); the proteins were subsequently transferred onto a nitrocellulose membrane in incubated with primary antibodies specific for the following proteins: phospho-ERK 1/2, total ERK. […]

[2] = cited from earlier work
CXCR4 receptor = target: T1, CXCR4 receptor (Homo sapiens, UniProt P61073); assay: Cytofluorimetric determination of Ca2+ release in CCFR-CEM cells after stimulation with SDF-1α; format: cell-based; conditions: compound 10 uM, read-out: reduction (inhibition) of Calcium release induced by SDF-1α
T1 construct: a leukaemia T CD4+ cell line with a high expression of the CXCR4 receptor; endogenous in cells; host or cells: CCRF-CEM (printed also CCFR-CEM) leukaemia T CD4+ cells
Text: For all the subsequent in vitro examples, two cell lines were used: CCFR-CEM and PES 43; the first is a leukaemia T CD4+ cell line with a high expression of the CXCR4 receptor, grown in a RPMI 1640 culture medium enriched with 10% of Fetal Bovine Serum (FBS) inactivated with heat and 1% of L-Glutamine; the second is a cell line deriving from melanoma lung metastasis called PES43 with a high expression of the CXCR4 receptor, grown in Iscove's Modified Dulbecco's Medium (IMDM) supplemented with 10% of Fetal Bovine Serum (FBS) inactivated with heat and 1% of Penicillin-Streptomycin.
The determination of the release of intracellular Calcium was effected in CCFR-CEM cells. The cells (500,000 cells) were washed with PBS, resuspended in 1 ml of Loading Buffer (PBS 1×, 1 mM CaCl2, 1 mM MgCl2, 1% FBS inactivated with heat) at 37° C., and incubated with 4 ul of the calcium tracer FLUO3-AM (1 mg/ml; Sigma) and 4 ul of Pluronic Acid F-127 (1 mg/ml in 2% of DMSO; Invitrogen) in the dark for 30′ at 37° C. under stirring. In order to remove the excess FLUO3-AM, 3 ml of Loading Buffer are added, this is followed by a centrifugation for 5′ at 1,000-1,200 rpm. The pellet thus obtained is resuspended in 1 ml of Loading Buffer. […]

T1 sequence (P61073 whole entry): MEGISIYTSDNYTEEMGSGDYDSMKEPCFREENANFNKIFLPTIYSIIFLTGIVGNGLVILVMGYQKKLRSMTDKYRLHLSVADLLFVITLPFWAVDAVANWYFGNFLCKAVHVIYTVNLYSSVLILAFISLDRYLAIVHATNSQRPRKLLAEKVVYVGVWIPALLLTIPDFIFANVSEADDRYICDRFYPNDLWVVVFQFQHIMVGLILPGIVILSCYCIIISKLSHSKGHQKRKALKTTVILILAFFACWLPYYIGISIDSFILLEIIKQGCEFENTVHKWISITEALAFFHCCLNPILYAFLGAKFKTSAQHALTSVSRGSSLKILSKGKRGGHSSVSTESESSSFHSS

c1cc(CN2CCCNCCNCCCNCC2)ccc1CN1CCCNCCNCCCNCC1 [AMD3100, 1,19-[1,4-phenylenebis(methylene)]-bis-1,4,8,11-azatetradecane]
inhibition of SDF-1α-activated phosphorylation of ERK [1]: inhibited
time of peak of increase in white blood cell series after administration ([2]; healthy volunteers, Phase 1): 6 h
bioavailability ([2]; previous studies [4]): poor
toxicity ([2]; previous studies [4]): hepatic, cardiac and cerebellar toxicity
inhibition at 10 µM (CXCR4 receptor): 70%
